The values that follow are results of earlier work, collected in paper PMC7693160 (Pharmaceutics, 2020).

SMILES strings stand for the structures.

One may read the Ki as the equilibrium dissociation constant of an inhibitor or competing ligand from its target.

Test systems include CYP2C9 1*/3*; CYP2C9 1*/1*; CYP2C9 3*/3*.
Holding throughout (parameters): method as in Kumar et al. 43
Holding throughout (conditions): ref Kumar et al. 43, read-out: Perpetrator in vitro Ki; cited from earlier work

Regarding `OC(Cn1cncn1)(Cn1cncn1)c1ccc(F)cc1F` [Fluconazole, fluconazole], the Ki in the series on CYP2C9 1*/3* is 17 µM; in the series with CYP2C9 1*/1* it was 11 µM; in the series on CYP2C9 3*/3*, 23 µM.
